Test system: TNFα mRNA in SKOV-3 cells
Assay: TNFα mRNA induction in SKOV-3 cells (FIG. 2), fold increase relative to untreated cells
Procedure: Each of the tumor cell lines indicated was treated for 18 hrs with 1 uM of the Compound II. mRNA was harvested using Qiagen's TurboCapture mRNA isolation kit. cDNA was synthesized using BioRad iScript cDNA synthesis kit. Primers specific for the cDNA encoding TNFalpha were then used to PCR amplify TNF cDNA from each sample using Applied. Biosystems TaqMan Universal PCR Master Mix. Data is normalized to B-Actin mRNA and expressed as relative levels of TNF mRNA.
The graph depicting TNF induction by compound II includes nine bars correlating to the fold increase of TNF relative to untreated cells.

SMILES: CC[C@@H](c1cncc(C(=O)c2ccc(F)cc2)c1)N(CC)C(=O)[C@@H](NC(=O)[C@H](C)NC)C1CCCCC1 [Compound III]
- induction of TNFα mRNA (in words): induce TNFα mRNA in SKOV-3 cells in a dose dependent manner
- fold increase of TNF relative to untreated cells (100 nM compound + PI (MG132)): 15-20 fold increase
- fold increase of TNF relative to untreated cells (100 nM compound + ZVAD): 85-95 fold increase
- fold increase of TNF relative to untreated cells (100 nM compound alone): 85-95 fold increase
- fold increase of TNF relative to untreated cells (1000 nM compound + PI (MG132)): 30-40 fold increase
- fold increase of TNF relative to untreated cells (1000 nM compound + ZVAD): 75-80 fold increase
- fold increase of TNF relative to untreated cells (1000 nM compound + sTNFR (soluble TNFα receptor)): 0-1 fold increase
- fold increase of TNF relative to untreated cells (1000 nM compound alone): 105-115 fold increase
- fold increase of TNF relative to untreated cells (100 nm compound + sTNFR (soluble TNFα receptor)): 0-3 fold increase

Source: patent US20100316573A1, “Organic Compounds” (priority 2006, published 2010)
